Legend:
[1] = tested on: dissociated DRG neurons; assay: Fura-2 calcium imaging of dissociated DRG neurons stimulated with capsaicin; type: cell-based, mouse
From the text: DRG were isolated from mice using a modified version of the previously described protocol (Perner C, et al. (2021) STAR Protoc. 2:100333). Briefly, mice were euthanized and dosed in 70% ethanol to prevent fur contamination. Mice were positioned prone, and an incision was made along the spine from the neck to the base of the tail. Under a dissecting microscope, the surrounding soft tissue of the spinal column was removed from the dorsal side by Friedman-Pearson Rongeurs (Fine Science Tools, Foster City, CA, Cat #16021-14) from the mid thoracic region to the lumbosacral joint. The vertebral bone surrounding the DRG was gently crushed and removed with rongeurs exposing the spinal cord. The DRG were carefully extracted near the foramen between the vertebral levels. L3 and L4 DRG were collected for analyses. Dissected DRG were placed directly into ice-cold DMEM-F12 medium (ThermoFisher, Cat #11320033) for in vitro culture, Trizol (ThermoFisher, Cat #15596018) for PCR analyses, or 4% PFA for histology. For cell culture experiments, collected DRG were digested in digestion solution comprised of collagenase type II (Worthington, Lakewood, NJ, Cat #LS004176) and dispase (1.5 mg/mL each) dissolved in DMEM/F12. DRG were agitated in a digestion solution on an orbital shaker at 60 rpm and 37° C. for 20 minutes and repeated thrice with fresh digestion solution. Next, the digestion solution was replaced with trypsin-EDTA (0.025%) in DMEM/F12 and incubated for an additional 15 min to disrupt the remaining cell-to-cell adhesions. The solution was then replaced with DMEM/F12 and FBS (1:3) to neutralize trypsin. DRG were triturated to create a cell suspension and gently layered onto 15% bovine serum albumin (BSA) solution without mixing and centrifuged for 6 min at 280 g with minimal acceleration and no deceleration to separate non-neuronal cells and debris (Owen D E, et al. (2012) Methods Mol Biol. 846:179-187). […]
Intracellular cytosolic Ca^2+ was evaluated by Fura-2 loaded DRG neurons (Khomula E V, et al. (2019) J Neurosci. 39:7061-7073). […]

[2] = Measurement of adenosine in plasma of fractured mice; type: in vivo, mouse; settings: 3 days after implantation of adenosine-loaded biomaterial following tibial fracture
Method: Peripheral blood was collected and immediately incubated in ice cold stop solution at a 1:2 ratio (blood to stop solution) to inhibit degradation of adenosine (Feldman M D, et al. (1992) Clin Chem. 38:256-262). Stop solution comprised of 0.2 mM dipyridamole (Tocris, Minneapolis, MN), 5 μM erythro-9 (2-hydroxy-3-nonyl)-adenine (EHNA; Tocris), 62 μM Adenosine 5′-(α,β-methylene) diphosphate sodium salt (APCP), 5 mM EDTA, and 25 IU/mL heparin (Tocris) in PBS. The blood was centrifuged at 2000 rcf for 10 min at 4° C. to separate cells from plasma. Adenosine assay kit (Cell Biolabs, San Diego, CA, Cat #MET-5090) was used to measure adenosine levels from plasma according to manufacturer's protocol. Briefly, a reaction mixture comprised of fluorometric Probe, HRP, adenosine deaminase, purine nucleoside phosphorylase, xanthine oxidase, assay buffer and a control mix comprised of fluorometric Probe, HRP, purine nucleoside phosphorylase, xanthine oxidase, assay buffer were made and mixed with 50 μL of plasma for 15 min. at room temp. The relative fluorescence unit (RFU) was measured using a microplate reader with excitation at 570 nm and emission at 590 nm. Adenosine concentration was determined using a standard curve of known concentrations and subtracted for the background by using the values in control mix.

SMILES: Nc1ncnc2c1ncn2[C@@H]1O[C@H](CO)[C@@H](O)[C@H]1O [adenosine]
- NGF-increased functional responses to capsaicin (Fura-2 average and peak intensity) ([1]; NGF 200 ng/mL 1 day, adenosine 5 μM for 5 min, capsaicin 100 nM): attenuated
- functional activity of DRG neurons (normalized peak intensity, calcium imaging) ([1]; initial screening, two different concentrations of adenosine, capsaicin stimulation): decreased
- adenosine level in peripheral blood vs control biomaterials [2]: No significant increase
